# From patent publication US20170239323A1, “ORITAVANCIN FORMULATIONS” (The Medicines Company, priority 2016, published 2017)
# Test: pH adjustment of oritavancin/HPCD solution with 1N NaOH: visual observations
# Type: physicochemical
# Protocol: Reconstituting Orbactiv 400 mg (Oritavancin) in 20% w/v HPCD, diluting in saline then adjusting pH. The 50 mg/mL solution of oritavancin in 20% w/v HPCD (described in Table 3) was further diluted in 0.9% saline to 6 mg/mL in a small glass vial. The pH was adjusted using 1N NaOH. NaOH was added to the oritavancin solution in […] and vortexed. Visual observations and pH were recorded (Table 5).
# Reconstituting Orbactiv 400 mg (Oritavancin) in 50% w/v HPCD aqueous solution, adjusting pH then diluting in saline. 6.269 g of HPCD was dissolved in 12.538 mL of water to make a 50% w/v solution (pH=7.23). Seven (7) mL of the 50% w/v solution was added to a 400 mg vial of Orbactiv for a target oritavancin concentration of 57.14 mg/mL. […] A 2 mL aliquot of 57.14 mg/mL was removed from the vial and placed in a small glass vial. The pH was adjusted to 6.5 using 1N NaOH. NaOH was added to the oritavancin solution in 5 μL increments and vortexed. Visual observations and pH were recorded (Table 6).
# (§1) Reconstituting Orbactiv 400 mg (Oritavancin) in 50% w/v aqueous HPCD, adjusting pH then diluting in saline. 6.112 g of HPCD was dissolved in 12.224 mL of water to make a 50% w/v solution (pH=6.74). Seven (7) mL of the 50% w/v HPCD solution was added to a 400 mg vial of Orbactiv for a target oritavancin concentration of 57.14 mg/mL. […] A 3 mL aliquot of 57.14 mg/mL was removed from the vial and placed in a small glass vial. The pH was adjusted to 7 using 1N NaOH. NaOH was added to the oritavancin solution in 5 μL increments and vortexed. Visual observations and pH were recorded (Table 8).
# as §1, with “20%” for “50%”, “3.555” for “6.112”, “17.775” for “12.224”, “(pH=6.88).” for “(pH=6.74).”, “recorded.” for “recorded”, “10).” for “8).”
smiles,measurement,setting,value
CN[C@H](CC(C)C)C(=O)N[C@H]1C(=O)N[C@@H](CC(N)=O)C(=O)N[C@H]2C(=O)N[C@H]3C(=O)N[C@H](C(=O)N[C@H](C(=O)O)c4cc(O)cc(O)c4-c4cc3ccc4O)[C@H](O[C@H]3C[C@](C)(N)[C@@H](O)[C@H](C)O3)c3ccc(c(Cl)c3)Oc3cc2cc(c3O[C@@H]2O[C@H](CO)[C@@H](O)[C@H](O)[C@H]2O[C@H]2C[C@](C)(NCc3ccc(-c4ccc(Cl)cc4)cc3)[C@@H](O)[C@H](C)O2)Oc2ccc(cc2Cl)[C@H]1O [Oritavancin],Observations,"20% w/v HPCD reconstitution diluted in 0.9% saline, 1N NaOH 0 μL, pH 4.10, oritavancin 6.00 mg/mL","Clear, colorless solution"
same,Observations,"20% w/v HPCD reconstitution diluted in 0.9% saline, 1N NaOH 5 μL, pH 5.33, oritavancin 5.99 mg/mL","Clear, colorless solution"
same,Observations,"20% w/v HPCD reconstitution diluted in 0.9% saline, 1N NaOH 10 μL, pH 6.05, oritavancin 5.97 mg/mL","Clear, colorless solution"
same,pH at which adjusting with 1N NaOH caused visible precipitation,20% w/v HPCD reconstitution diluted to 6 mg/mL in 0.9% saline,> 6
same,Observations,"50% w/v HPCD reconstitution (2 mL aliquot), 1N NaOH 0 μL, pH 4.08, oritavancin 57.14 mg/mL","Clear, colorless solution"
same,Observations,"50% w/v HPCD reconstitution (2 mL aliquot), 1N NaOH 5 μL, pH 4.26, oritavancin 57.10 mg/mL","Clear, colorless solution"
same,Observations,"50% w/v HPCD reconstitution (2 mL aliquot), 1N NaOH 10 μL, pH 4.56, oritavancin 57.06 mg/mL","Clear, colorless solution"
same,Observations,"50% w/v HPCD reconstitution (2 mL aliquot), 1N NaOH 15 μL, pH 4.90, oritavancin 57.02 mg/mL","Clear, colorless solution"
same,Observations,"50% w/v HPCD reconstitution (2 mL aliquot), 1N NaOH 20 μL, pH 5.19, oritavancin 56.98 mg/mL","Clear, colorless solution"
same,Observations,"50% w/v HPCD reconstitution (2 mL aliquot), 1N NaOH 25 μL, pH 5.39, oritavancin 56.94 mg/mL","Clear, colorless solution"
same,Observations,"50% w/v HPCD reconstitution (2 mL aliquot), 1N NaOH 30 μL, pH 5.65, oritavancin 56.90 mg/mL","Clear, colorless solution."
same,Observations,"50% w/v HPCD reconstitution (2 mL aliquot), 1N NaOH 35 μL, pH 5.81, oritavancin 56.86 mg/mL","Clear, colorless solution."
same,Observations,"50% w/v HPCD reconstitution (2 mL aliquot), 1N NaOH 40 μL, pH 6.10, oritavancin 56.82 mg/mL","Clear, colorless solution."
same,Observations,"50% w/v HPCD reconstitution (2 mL aliquot), 1N NaOH 45 μL, pH 6.17, oritavancin 56.78 mg/mL","Clear, colorless solution."
same,Observations,"50% w/v HPCD reconstitution (2 mL aliquot), 1N NaOH 50 μL, pH 6.33, oritavancin 56.74 mg/mL","Clear, colorless solution."
same,Observations,"50% w/v HPCD reconstitution (3 mL aliquot), 1N NaOH 0 μL, pH 4.05, oritavancin 57.14 mg/mL","Clear, colorless solution."
same,Observations,"50% w/v HPCD reconstitution (3 mL aliquot), 1N NaOH 5 μL, pH 4.28, oritavancin 57.04 mg/mL","Clear, colorless solution"
same,Observations,"50% w/v HPCD reconstitution (3 mL aliquot), 1N NaOH 10 μL, pH 4.44, oritavancin 56.94 mg/mL","Clear, colorless solution"
same,Observations,"50% w/v HPCD reconstitution (3 mL aliquot), 1N NaOH 15 μL, pH 4.68, oritavancin 56.84 mg/mL","Clear, colorless solution"
same,Observations,"50% w/v HPCD reconstitution (3 mL aliquot), 1N NaOH 20 μL, pH 4.93, oritavancin 56.74 mg/mL","Clear, colorless solution"
same,Observations,"50% w/v HPCD reconstitution (3 mL aliquot), 1N NaOH 25 μL, pH 5.11, oritavancin 56.64 mg/mL","Clear, colorless solution"
same,Observations,"50% w/v HPCD reconstitution (3 mL aliquot), 1N NaOH 30 μL, pH 5.23, oritavancin 56.54 mg/mL","Clear, colorless solution"
same,Observations,"50% w/v HPCD reconstitution (3 mL aliquot), 1N NaOH 35 μL, pH 5.36, oritavancin 56.44 mg/mL","Clear, colorless solution"
same,Observations,"50% w/v HPCD reconstitution (3 mL aliquot), 1N NaOH 40 μL, pH 5.48, oritavancin 56.35 mg/mL","Clear, colorless solution."
same,Observations,"50% w/v HPCD reconstitution (3 mL aliquot), 1N NaOH 45 μL, pH 5.77, oritavancin 56.24 mg/mL","Clear, colorless solution"
same,Observations,"50% w/v HPCD reconstitution (3 mL aliquot), 1N NaOH 50 μL, pH 5.82, oritavancin 56.14 mg/mL","Clear, colorless solution"
same,Observations,"50% w/v HPCD reconstitution (3 mL aliquot), 1N NaOH 55 μL, pH 5.85, oritavancin 56.03 mg/mL","Clear, colorless solution"
same,Observations,"50% w/v HPCD reconstitution (3 mL aliquot), 1N NaOH 60 μL, pH 5.94, oritavancin 55.93 mg/mL","Clear, colorless solution"
same,Observations,"50% w/v HPCD reconstitution (3 mL aliquot), 1N NaOH 65 μL, pH 6.05, oritavancin 55.83 mg/mL","Clear, colorless solution."
same,Observations,"50% w/v HPCD reconstitution (3 mL aliquot), 1N NaOH 70 μL, pH 6.15, oritavancin 55.72 mg/mL","Clear, colorless solution"
same,Observations,"50% w/v HPCD reconstitution (3 mL aliquot), 1N NaOH 75 μL, pH 6.20, oritavancin 55.61 mg/mL","Clear, colorless solution"
same,Observations,"50% w/v HPCD reconstitution (3 mL aliquot), 1N NaOH 80 μL, pH 6.23, oritavancin 55.50 mg/mL","Clear, colorless solution"
same,Observations,"50% w/v HPCD reconstitution (3 mL aliquot), 1N NaOH 85 μL, pH 6.34, oritavancin 55.39 mg/mL","Clear, colorless solution"
same,Observations,"50% w/v HPCD reconstitution (3 mL aliquot), 1N NaOH 90 μL, pH 6.32, oritavancin 55.28 mg/mL","Clear, colorless solution"
same,Observations,"50% w/v HPCD reconstitution (3 mL aliquot), 1N NaOH 95 μL, pH 6.38, oritavancin 55.17 mg/mL","Clear, colorless solution"
same,Observations,"50% w/v HPCD reconstitution (3 mL aliquot), 1N NaOH 100 μL, pH 6.46, oritavancin 55.07 mg/mL","Clear, colorless solution."
same,Observations,"50% w/v HPCD reconstitution (3 mL aliquot), 1N NaOH 105 μL, pH 6.57, oritavancin 54.95 mg/mL","Clear, colorless solution"
same,Observations,"50% w/v HPCD reconstitution (3 mL aliquot), 1N NaOH 110 μL, pH 6.59, oritavancin 54.84 mg/mL","Clear, colorless solution"
same,Observations,"50% w/v HPCD reconstitution (3 mL aliquot), 1N NaOH 115 μL, pH 6.71, oritavancin 54.73 mg/mL","Clear, colorless solution"
same,Observations,"50% w/v HPCD reconstitution (3 mL aliquot), 1N NaOH 120 μL, pH 6.70, oritavancin 54.61 mg/mL","Clear, colorless solution"
same,Observations,"50% w/v HPCD reconstitution (3 mL aliquot), 1N NaOH 125 μL, pH 6.75, oritavancin 54.50 mg/mL","Clear, colorless solution."
same,Observations,"50% w/v HPCD reconstitution (3 mL aliquot), 1N NaOH 130 μL, pH 6.90, oritavancin 54.38 mg/mL","Clear, colorless solution"
same,Observations,"50% w/v HPCD reconstitution (3 mL aliquot), 1N NaOH 135 μL, pH 6.90, oritavancin 54.26 mg/mL","Clear, colorless solution"
same,Observations,"50% w/v HPCD reconstitution (3 mL aliquot), 1N NaOH 140 μL, pH 6.96, oritavancin 54.14 mg/mL","Clear, colorless solution."
